Measured values published in US20100099122A1 (priority 2008, published 2010).
Entries after “also recorded” stand apart in the source; their conditions may differ. Like-named read-outs stand apart in the source and are kept apart here.

How the values were obtained:
[1] = system: H. capsulatum Ggt1 (GSH-FeR); assay type: biochemical, Histoplasma capsulatum; conditions: inhibitor 0.1 mM, 15 min pretreatment, then removed by diafiltration, GSH-FeR activity
H. capsulatum Ggt1 = H. capsulatum Ggt1 (Histoplasma ohiense, UniProt A0ACF1AEB1); assay type: biochemical
[2] = system: H. capsulatum Ggt1 (GSH-FeR); conditions: cited from earlier work

Molecule	Fe^3+ reduction catalyzed by γ-Glutamyltransferase (Ggt1), effect of inhibitor [1]	Glu transfer catalyzed by γ-Glutamyltransferase (Ggt1), effect of inhibitor (H. capsulatum Ggt1)	also measured
N[C@H](C(=O)O)[C@@H]1CC(Cl)=NO1 [Acivicin, acivicin]	Inhibition	completely abolished; also recorded: Inhibition	Fe^3+ reduction catalyzed by γ-Glutamyltransferase (Ggt1), effect of inhibitor ([1]; listed as acivicin): completely abolished
[Al] [Aluminum, aluminum]	strong inhibitory effect; also recorded: Inhibition	no inhibitory action; also recorded: No effect	inhibition of GSH-FeR activity [2]: reversibly inhibited
[N-]=[N+]=CC(=O)CC[C@H](N)C(=O)O [DON, 6-diazo-5-oxo-L-norleucine]	completely abolished; also recorded: Inhibition	completely abolished; also recorded: Inhibition	
N[C@@H](CCC(=O)Nc1ccc([N+](=O)[O-])cc1)C(=O)O [GpNA, γ-glutamyl-p-nitroanilide]			Km (H. capsulatum Ggt1; read-out: apparent optimal Km for GpNA, glutamyl transfer reaction): ~840 µM; Km (H. capsulatum Ggt1; read-out: apparent optimal Km for GpNA, hydrolysis): ~750 µM
N[C@@H](CS)C(=O)NCC(=O)O [cysteinylglycine]			ability to reduce iron compared to the activity of 1 mM GSH (1 mM): over 117 fold; iron reduction activity (ferrous iron generated) (0.5-1 mM): generated measurable amounts of ferrous iron; iron reduction by cysteinylglycine alone (pH 5.5): 2.85±0.08 μmol of Fe^2+ min^−1 (mmol CysGly)^−1
[Ga] [gallium]	strong inhibitory effect; also recorded: Inhibition	no inhibitory action; also recorded: No effect	inhibition of GSH-FeR activity [2]: reversibly inhibited
serine/borate complex [SBC]	completely abolished; also recorded: Inhibition	completely abolished; also recorded: Inhibition	
